Experimental data as given in patent publication US7410975B2, “Small molecule toll-like receptor (TLR) antagonists” (Coley Pharmaceutical Group, Inc., priority 2003, dated 2008).

Biological target: T1, human TLR8 (hTLR8) (Homo sapiens, UniProt Q9NR97)
T1 construct: expressed in transfected cells
T1 sequence (Q9NR97 27-1041): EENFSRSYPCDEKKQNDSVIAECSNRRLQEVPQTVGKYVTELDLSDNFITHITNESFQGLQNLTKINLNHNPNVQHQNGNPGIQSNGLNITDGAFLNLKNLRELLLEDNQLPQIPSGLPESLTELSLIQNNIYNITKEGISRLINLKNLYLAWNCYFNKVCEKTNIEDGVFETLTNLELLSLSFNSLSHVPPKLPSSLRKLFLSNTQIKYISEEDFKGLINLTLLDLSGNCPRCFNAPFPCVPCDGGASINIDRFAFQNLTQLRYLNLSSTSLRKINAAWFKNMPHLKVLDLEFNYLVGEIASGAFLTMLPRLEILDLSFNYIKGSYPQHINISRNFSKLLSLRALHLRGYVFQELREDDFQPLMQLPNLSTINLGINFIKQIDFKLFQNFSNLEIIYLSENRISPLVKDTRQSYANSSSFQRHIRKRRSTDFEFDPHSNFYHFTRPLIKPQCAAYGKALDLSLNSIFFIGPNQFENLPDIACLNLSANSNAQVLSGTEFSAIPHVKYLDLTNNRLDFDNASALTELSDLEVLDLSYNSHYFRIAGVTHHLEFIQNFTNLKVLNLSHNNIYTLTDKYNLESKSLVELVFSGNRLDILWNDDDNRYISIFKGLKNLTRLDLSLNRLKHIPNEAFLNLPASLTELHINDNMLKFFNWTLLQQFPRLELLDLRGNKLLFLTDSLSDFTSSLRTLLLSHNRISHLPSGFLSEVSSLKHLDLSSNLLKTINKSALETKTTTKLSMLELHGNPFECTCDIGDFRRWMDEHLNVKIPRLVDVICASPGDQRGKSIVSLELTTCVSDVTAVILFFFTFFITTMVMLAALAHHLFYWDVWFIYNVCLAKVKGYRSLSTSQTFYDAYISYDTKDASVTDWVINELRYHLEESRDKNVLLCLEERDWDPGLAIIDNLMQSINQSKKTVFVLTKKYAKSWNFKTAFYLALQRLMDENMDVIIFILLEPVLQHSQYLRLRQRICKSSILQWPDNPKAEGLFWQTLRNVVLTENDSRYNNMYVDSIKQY
Assay: Antagonist screen, hTLR8-NFκB-293 cells, NF-κB-luciferase reporter, with EC50 of R848
Type: cell-based
Conditions: compound at 0.5, 5, 50 μg/ml; EC50 concentration of R848; 16 h; NF-κB-luciferase
Procedure: The method is described in greater detail as follows. The cells for each individual cell clone (hTLR3-NFκB-293, hTLR7-NFκB-293, hTLR8-NFκB-293 and hTLR9-NFκB-293) were counted and seeded one day before the stimulation at 1.5×10^4 cells per well in 96-well cell culture plates. To become adherent the cells were incubated after seeding overnight at 37° C. in 5% CO2 humidified air.
The screen for each compound was performed at the same time for all of the receptors TLR3, TLR7, TLR8 and TLR9. Up to fifteen test compounds, each assayed in duplicate at each of three different final concentrations (0.5 μg/ml, 5 μg/ml, and 50 μg/ml), were used for 16 h cell stimulation on a single multiwell culture plate. A 4× final concentration master plate was created to prepare the different test compounds before they were added to the cells.
Controls were added as duplicates individually for each cell clone on the cell culture plate. Positive controls were used as follows (final concentrations): 50 μg/ml poly(I:C) for hTLR3-NFκB-293; 8 μM resiquimod (R848) for hTLR7-NFκB-293; 30 μM R848 for hTLR8-NFκB-293; and 2.5 μM CpG-ODN 2006 for hTLR9-NFκB-293. Media alone was used as negative control. After addition of controls and small molecules, the cell clones were additionally stimulated with the EC50 concentration of the appropriate receptor-specific ligand.
The mean value of wells H2 and H5 (each with cells and EC50 concentration of the appropriate receptor-specific ligand) divided by the mean of wells H3 and H6 (each with cells alone) yielded the baseline response (i.e., fold induction of luciferase activity) to EC50 concentration of the appropriate receptor-specific ligand.
After 16 h stimulation the supernatant was removed and the cells treated with lysis buffer and stored at −80° C. before measuring.
For each screen result a graphical documentation was performed.
The baseline result (measured with addition of the EC50 concentration of the receptor-specific ligand) for each cell culture plate was measured as described above. Antagonistic effects were measured by down regulation compared to the baseline. Antagonists were scored as follows: • 13: compounds for which there was clear down regulation at 0.5 μg/ml, 5 μg/ml, and 50 μg/ml; • 12: compounds for which there was clear down regulation at 5 μg/ml and 50 μg/ml; • 11: compounds for which there was clear down regulation only at 50 μg/ml; • —: compounds for which there was no clear down regulation even at 50 μg/ml. Agonists
Results were expressed as fold induction over baseline luciferase activity measured in the absence of R848. […] Additional screening was performed in like manner using additional small molecules selected from another library or specifically prepared for this purpose. Scoring is reported as above but as applied to TLR8.

Row | Compound | hTLR8 (inhibitory effect, antagonist score)
1 | Cc1cccc(CN2CCN(C(c3ccccc3)c3ccc(Cl)cc3)CC2)c1.Cl.Cl (stereo not shown) [compound 457, Meclozinedihydrochioride] | — (compounds for which there was no clear down regulation even at 50 μg/ml)
2 | CC(CN(C)C)CN1c2ccccc2Sc2ccccc21.CC(CN(C)C)CN1c2ccccc2Sc2ccccc21.O=C(O)C(O)C(O)C(=O)O (stereo not shown) [compound 842, Trimeprazine tartrate] | 11 (compounds for which there was clear down regulation only at 50 μg/ml)
3 | O=C1c2ccccc2C(=O)c2c1ccc1c(=O)n(C3CCCCC3)[nH]c21 [compound 1015] | 11 (compounds for which there was clear down regulation only at 50 μg/ml)
4 | CS(=O)(=O)O.OC(CCN1CCCCC1)(c1ccccc1)c1ccccc1 [compound 799, Pridinolmethanesulfonate salt] | — (compounds for which there was no clear down regulation even at 50 μg/ml)
5 | CCN(CC)C(C)CN1c2ccccc2Sc2ccccc21.Cl (stereo not shown) [compound 840, Ethopropazinehydrochloride] | 11 (compounds for which there was clear down regulation only at 50 μg/ml)
6 | CC[C@]12CCCN3CCc4c(n(c5ccccc45)[C@](O)(C(=O)OC)C1)[C@@H]32 [compound 636, Epivincamine] | — (compounds for which there was no clear down regulation even at 50 μg/ml)
7 | CCOC(=O)Oc1c(OC)cc(C(=O)O[C@@H]2C[C@@H]3CN4CCc5c([nH]c6cc(OC)ccc56)[C@H]4C[C@@H]3[C@H](C(=O)OC)[C@H]2OC)cc1OC [compound 564, Syrosingopine] | 12 (compounds for which there was clear down regulation at 5 μg/ml and 50 μg/ml)
8 | CN(C)CCCN1c2ccccc2Sc2ccccc21.Cl [compound 693, Promazinehydrochloride] | — (compounds for which there was no clear down regulation even at 50 μg/ml)
9 | Cc1c2ccncc2c(C)c2c1[nH]c1ccccc12 [compound 614, Ellipticine] | 11 (compounds for which there was clear down regulation only at 50 μg/ml)
10 | C[N+]12CCC(CC1)C(OC(=O)C(O)(c1ccccc1)c1ccccc1)C2.[Br-] (stereo not shown) [compound 822, Clidinium bromide] | — (compounds for which there was no clear down regulation even at 50 μg/ml)
11 | CN(C)CC/C=C1/c2ccccc2CSc2ccccc21.Cl [compound 488, Dosulepin hydrochloride] | — (compounds for which there was no clear down regulation even at 50 μg/ml)
12 | CN1CCCCC1CCN1c2ccccc2Sc2ccc([S+](C)[O-])cc21.O=S(=O)(O)c1ccccc1 (stereo not shown) [compound 529, Mesoridazine besylate] | — (compounds for which there was no clear down regulation even at 50 μg/ml)
13 | O=C(O)c1ccccc1NC1CC=CC2=C1C(=O)c1ccccc1C2=O (stereo not shown) [compound 917] | — (compounds for which there was no clear down regulation even at 50 μg/ml)
14 | Cl.Cl.c1ccc2c3c([nH]c2c1)C1C2CCC(C4CCCNC42)N1CC3 (stereo not shown) [compound 685, Nitrarine dihydorchloride] | — (compounds for which there was no clear down regulation even at 50 μg/ml)
15 | CC1NCCc2c1[nH]c1ccccc21.Cl (racemic) [compound 619, Eleagnine hydrochloride (R,S)] | — (compounds for which there was no clear down regulation even at 50 μg/ml)
16 | COC(=O)C1=CO[C@@H](C)[C@@H]2CN3CCc4c([nH]c5ccccc45)[C@@H]3C[C@H]12 [compound 593, Tetrahydroalstonine] | — (compounds for which there was no clear down regulation even at 50 μg/ml)

Row | Compound | hTLR8 (inhibitory effect, antagonist score)
17 | COCCCNC(=O)c1ccc2c(c1N)C(=O)c1ccccc1C2=O [compound 1337] | 11 (compounds for which there was clear down regulation only at 50 μg/ml)
18 | C[C@]12N[C@H](Cc3ccccc31)c1ccccc12.O=C(O)/C=C\C(=O)O [compound 109, Dizocilpine maleate] | — (compounds for which there was no clear down regulation even at 50 μg/ml)
19 | NC(=O)c1cccc2c1-c1ccccc1C2 [compound 1132] | 11 (compounds for which there was clear down regulation only at 50 μg/ml)
20 | CN(C)CCCN1c2ccccc2Sc2ccc(C(F)(F)F)cc21.Cl [compound 53, Triflupromazinehydrochloride] | 11 (compounds for which there was clear down regulation only at 50 μg/ml)
21 | NC(=O)c1cc(N)c2c(c1N)C(=O)c1ccccc1C2=O [compound 1158] | — (compounds for which there was no clear down regulation even at 50 μg/ml)
22 | CNCCCN1c2ccccc2CCc2ccccc21.Cl [compound 343, Desipraminehydrochloride] | 11 (compounds for which there was clear down regulation only at 50 μg/ml)
23 | CC1CCN(C(=O)c2cccc3c2-c2ccccc2C3=O)CC1 [compound 1243] | 11 (compounds for which there was clear down regulation only at 50 μg/ml)
24 | Metixene hydrochloride [compound 491] | 11 (compounds for which there was clear down regulation only at 50 μg/ml)
25 | COc1ccc2c(c1)[nH]c1c(C)nccc12.Cl [compound 613, harmine hydrochloride] | 13 (compounds for which there was clear down regulation at 0.5 μg/ml, 5 μg/ml, and 50 μg/ml)
26 | COC(=O)[C@H]1[C@H]2C[C@@H]3c4[nH]c5cc(OC)ccc5c4CCN3C[C@H]2C[C@@H](OC(=O)/C=C/c2cc(OC)c(OC)c(OC)c2)[C@@H]1OC [compound 568, Rescinnamin] | — (compounds for which there was no clear down regulation even at 50 μg/ml)
27 | O=C(c1cccc2c1-c1ccccc1/C2=N\O)N1CCCCC1 [compound 1050] | 11 (compounds for which there was clear down regulation only at 50 μg/ml)
28 | CC[C@]12CCCN3CCc4c(n(c5ccccc45)C(=O)C1)[C@@H]32 [compound 607, Eburnamonine] | — (compounds for which there was no clear down regulation even at 50 μg/ml)
29 | COC(=O)c1ccc(C2CC(=O)Nc3c2ccc2ccccc32)cc1 (stereo not shown) [compound 965] | — (compounds for which there was no clear down regulation even at 50 μg/ml)
30 | C=CCc1ccccc1OC1(c2ccccc2)OC(=O)c2ccccc21 (stereo not shown) [compound 957] | — (compounds for which there was no clear down regulation even at 50 μg/ml)
31 | Clc1ccc(C(c2ccccc2Cl)C(Cl)Cl)cc1 (stereo not shown) [compound 833, Mitotane] | 11 (compounds for which there was clear down regulation only at 50 μg/ml)
